Assay results: US20230398130A1, “METHODS AND COMPOSITIONS FOR DIFFERENTIATING STEM CELLS” (Massachusetts Institute of Technology, priority 2020, published 2023)

Experiments:
ISC-enriched organoids [1] = assay: Primary screen, 384-well 2.5-D organoid differentiation (ENR+CD, 6 days): basal lysozyme secretion (LYZ.NS); format: cell-based, murine; details: primary screen; for Dose.FC.LYZ.NS: FC vs plate median; for Z.LYZ.NS: standard z score; for SSMD.LYZ.NS: strictly standardized mean difference
From the text: (§1) High-throughput screening.

ISC-enriched organoids [2] = assay: Primary screen, 384-well 2.5-D organoid differentiation (ENR+CD, 6 days): carbachol-induced lysozyme secretion (LYZ.S); format: cell-based, murine; details: primary screen; for Dose.FC.LYZ.S: FC vs plate median; for Z.LYZ.S: standard z score; for SSMD.LYZ.S: strictly standardized mean difference
From the text: as §1

ISC-enriched organoids [3] = assay: Primary screen, 384-well 2.5-D organoid differentiation (ENR+CD, 6 days, Target Selective Inhibitor Library, vs whole-plate median): ATP (CellTiter-Glo 3D, CTG); details: primary screen; for Dose.FC.CTG: FC vs plate median; for Z.CTG: standard z score; for SSMD.CTG: strictly standardized mean difference
[4] = 1st of the 4 dose lines of the treatment (dose not given)
[5] = 2nd of the 4 dose lines of the treatment (dose not given)
[6] = 3rd of the 4 dose lines of the treatment (dose not given)
[7] = 4th of the 4 dose lines of the treatment (dose not given)

SMILES	SSMD.LYZ.NS (ISC-enriched organoids [1]; [4])	SSMD.LYZ.NS (ISC-enriched organoids [1]; [5])	SSMD.LYZ.NS (ISC-enriched organoids [1]; [6])	SSMD.LYZ.NS (ISC-enriched organoids [1]; [7])	Z.LYZ.S (ISC-enriched organoids [2]; [4])	Z.LYZ.S (ISC-enriched organoids [2]; [5])	Z.LYZ.S (ISC-enriched organoids [2]; [6])	Z.LYZ.S (ISC-enriched organoids [2]; [7])	SSMD.LYZ.S (ISC-enriched organoids [2]; [4])	SSMD.LYZ.S (ISC-enriched organoids [2]; [5])	SSMD.LYZ.S (ISC-enriched organoids [2]; [6])	SSMD.LYZ.S (ISC-enriched organoids [2]; [7])	Z.CTG (ISC-enriched organoids [3]; Dose 0.08 uM)	Z.CTG (ISC-enriched organoids [3]; Dose 0.40 uM)	Z.CTG (ISC-enriched organoids [3]; Dose 2.00 uM)	Z.CTG (ISC-enriched organoids [3]; Dose 10.00 uM)	SSMD.CTG (ISC-enriched organoids [3]; [4])	SSMD.CTG (ISC-enriched organoids [3]; [5])	SSMD.CTG (ISC-enriched organoids [3]; [6])	SSMD.CTG (ISC-enriched organoids [3]; [7])	further results
COC(=O)CCSCc1ccc(-c2onc(C)c2NC(=O)OC(C)c2ccccc2Cl)cc1 (centres unmarked) [Ki16198]	0.052	−0.083	0.211	−0.914	0.176	0.204	−0.095	−0.239	0.136	0.231	−0.105	−0.262	−0.026	−0.258	−0.078	0.052	−0.028	−0.359	−0.118	0.073	Dose.FC.LYZ.NS (ISC-enriched organoids [1]; Dose 0.08 uM): 0.005 log 2 fold change; Z.LYZ.NS (ISC-enriched organoids [1]; Dose 0.08 uM): 0.044; Dose.FC.LYZ.NS (ISC-enriched organoids [1]; Dose 0.40 uM): −0.009 log 2 fold change; Z.LYZ.NS (ISC-enriched organoids [1]; Dose 0.40 uM): −0.076; Dose.FC.LYZ.NS (ISC-enriched organoids [1]; Dose 2.00 uM): 0.060 log 2 fold change; Z.LYZ.NS (ISC-enriched organoids [1]; Dose 2.00 uM): 0.519; Dose.FC.LYZ.NS (ISC-enriched organoids [1]; Dose 10.00 uM): −0.103 log 2 fold change; Z.LYZ.NS (ISC-enriched organoids [1]; Dose 10.00 uM): −0.899; Dose.FC.LYZ.S (ISC-enriched organoids [2]; Dose 0.08 uM): 0.027 log 2 fold change; Dose.FC.LYZ.S (ISC-enriched organoids [2]; Dose 0.40 uM): 0.031 log 2 fold change; Dose.FC.LYZ.S (ISC-enriched organoids [2]; Dose 2.00 uM): −0.015 log 2 fold change; Dose.FC.LYZ.S (ISC-enriched organoids [2]; Dose 10.00 uM): −0.037 log 2 fold change; Dose.FC.CTG (ISC-enriched organoids [3]; Dose 0.08 uM): −0.011 log 2 fold change; Dose.FC.CTG (ISC-enriched organoids [3]; Dose 0.40 uM): −0.108 log 2 fold change; Dose.FC.CTG (ISC-enriched organoids [3]; Dose 2.00 uM): −0.033 log 2 fold change; Dose.FC.CTG (ISC-enriched organoids [3]; Dose 10.00 uM): 0.022 log 2 fold change
Cc1noc(-c2ccc(CSCCC(=O)O)cc2)c1NC(=O)OC(C)c1ccccc1Cl (centres unmarked) [Ki16425]	0.006	0.483	−0.072	−0.246	0.142	0.739	−0.135	−0.459	0.130	0.421	−0.133	−0.394	−0.121	−0.005	−0.185	−0.394	−0.145	−0.008	−0.226	−0.527	Dose.FC.LYZ.NS (ISC-enriched organoids [1]; Dose 0.08 uM): 0.001 log 2 fold change; Z.LYZ.NS (ISC-enriched organoids [1]; Dose 0.08 uM): 0.005; Dose.FC.LYZ.NS (ISC-enriched organoids [1]; Dose 0.40 uM): 0.117 log 2 fold change; Z.LYZ.NS (ISC-enriched organoids [1]; Dose 0.40 uM): 1.017; Dose.FC.LYZ.NS (ISC-enriched organoids [1]; Dose 2.00 uM): −0.008 log 2 fold change; Z.LYZ.NS (ISC-enriched organoids [1]; Dose 2.00 uM): −0.069; Dose.FC.LYZ.NS (ISC-enriched organoids [1]; Dose 10.00 uM): −0.038 log 2 fold change; Z.LYZ.NS (ISC-enriched organoids [1]; Dose 10.00 uM): −0.327; Dose.FC.LYZ.S (ISC-enriched organoids [2]; Dose 0.08 uM): 0.022 log 2 fold change; Dose.FC.LYZ.S (ISC-enriched organoids [2]; Dose 0.40 uM): 0.114 log 2 fold change; Dose.FC.LYZ.S (ISC-enriched organoids [2]; Dose 2.00 uM): −0.021 log 2 fold change; Dose.FC.LYZ.S (ISC-enriched organoids [2]; Dose 10.00 uM): −0.071 log 2 fold change; Dose.FC.CTG (ISC-enriched organoids [3]; Dose 0.08 uM): −0.051 log 2 fold change; Dose.FC.CTG (ISC-enriched organoids [3]; Dose 0.40 uM): −0.002 log 2 fold change; Dose.FC.CTG (ISC-enriched organoids [3]; Dose 2.00 uM): −0.078 log 2 fold change; Dose.FC.CTG (ISC-enriched organoids [3]; Dose 10.00 uM): −0.165 log 2 fold change
O=C(c1cn(Cc2cncn2Cc2ccc(Br)cc2)cc1-c1cccc2ccccc12)N1CCOCC1 [LB42708]	−1.118	−1.157	−1.034	−0.939	−0.576	−0.934	−1.539	−1.509	−0.519	−0.630	−0.965	−0.864	−0.172	−0.817	−0.277	−1.685	−0.254	−0.531	−0.186	−1.059	Dose.FC.LYZ.NS (ISC-enriched organoids [1]; Dose 0.08 uM): −0.116 log 2 fold change; Z.LYZ.NS (ISC-enriched organoids [1]; Dose 0.08 uM): −1.010; Dose.FC.LYZ.NS (ISC-enriched organoids [1]; Dose 0.40 uM): −0.140 log 2 fold change; Z.LYZ.NS (ISC-enriched organoids [1]; Dose 0.40 uM): −1.221; Dose.FC.LYZ.NS (ISC-enriched organoids [1]; Dose 2.00 uM): −0.176 log 2 fold change; Z.LYZ.NS (ISC-enriched organoids [1]; Dose 2.00 uM): −1.531; Dose.FC.LYZ.NS (ISC-enriched organoids [1]; Dose 10.00 uM): −0.182 log 2 fold change; Z.LYZ.NS (ISC-enriched organoids [1]; Dose 10.00 uM): −1.587; Dose.FC.LYZ.S (ISC-enriched organoids [2]; Dose 0.08 uM): −0.089 log 2 fold change; Dose.FC.LYZ.S (ISC-enriched organoids [2]; Dose 0.40 uM): −0.144 log 2 fold change; Dose.FC.LYZ.S (ISC-enriched organoids [2]; Dose 2.00 uM): −0.238 log 2 fold change; Dose.FC.LYZ.S (ISC-enriched organoids [2]; Dose 10.00 uM): −0.233 log 2 fold change; Dose.FC.CTG (ISC-enriched organoids [3]; Dose 0.08 uM): −0.072 log 2 fold change; Dose.FC.CTG (ISC-enriched organoids [3]; Dose 0.40 uM): −0.342 log 2 fold change; Dose.FC.CTG (ISC-enriched organoids [3]; Dose 2.00 uM): −0.116 log 2 fold change; Dose.FC.CTG (ISC-enriched organoids [3]; Dose 10.00 uM): −0.706 log 2 fold change
Cc1c(C(=O)Nc2ccc(N3C[C@@H](C)O[C@@H](C)C3)nc2)cccc1-c1ccc(OC(F)(F)F)cc1 [LDE225 (NVP-LDE225, Erismodegib)]	0.869	0.731	0.074	0.268	0.613	0.481	0.013	0.038	0.704	0.415	0.013	0.025	0.255	0.159	0.546	−0.002	0.313	0.163	0.681	−0.001	Dose.FC.LYZ.NS (ISC-enriched organoids [1]; Dose 0.08 uM): 0.085 log 2 fold change; Z.LYZ.NS (ISC-enriched organoids [1]; Dose 0.08 uM): 0.739; Dose.FC.LYZ.NS (ISC-enriched organoids [1]; Dose 0.40 uM): 0.101 log 2 fold change; Z.LYZ.NS (ISC-enriched organoids [1]; Dose 0.40 uM): 0.881; Dose.FC.LYZ.NS (ISC-enriched organoids [1]; Dose 2.00 uM): 0.011 log 2 fold change; Z.LYZ.NS (ISC-enriched organoids [1]; Dose 2.00 uM): 0.094; Dose.FC.LYZ.NS (ISC-enriched organoids [1]; Dose 10.00 uM): 0.049 log 2 fold change; Z.LYZ.NS (ISC-enriched organoids [1]; Dose 10.00 uM): 0.426; Dose.FC.LYZ.S (ISC-enriched organoids [2]; Dose 0.08 uM): 0.095 log 2 fold change; Dose.FC.LYZ.S (ISC-enriched organoids [2]; Dose 0.40 uM): 0.074 log 2 fold change; Dose.FC.LYZ.S (ISC-enriched organoids [2]; Dose 2.00 uM): 0.002 log 2 fold change; Dose.FC.LYZ.S (ISC-enriched organoids [2]; Dose 10.00 uM): 0.006 log 2 fold change; Dose.FC.CTG (ISC-enriched organoids [3]; Dose 0.08 uM): 0.107 log 2 fold change; Dose.FC.CTG (ISC-enriched organoids [3]; Dose 0.40 uM): 0.067 log 2 fold change; Dose.FC.CTG (ISC-enriched organoids [3]; Dose 2.00 uM): 0.229 log 2 fold change; Dose.FC.CTG (ISC-enriched organoids [3]; Dose 10.00 uM): −0.001 log 2 fold change
Cc1cc(Nc2ncc(Cl)c(Nc3ccccc3S(=O)(=O)C(C)C)n2)c(OC(C)C)cc1C1CCNCC1 [LDK378]	0.246	−0.527	−1.818	−2.550	0.763	−0.306	−1.817	−3.149	0.574	−0.290	−1.400	−2.075	0.322	0.010	−0.869	−3.087	0.320	0.013	−0.596	−1.329	
c1cc(-c2cnn3cc(-c4ccc(N5CCNCC5)cc4)cnc23)c2cccnc2c1 [LDN-212854]	0.567	0.395	−1.438	−1.649	1.050	0.167	−1.888	−2.582	0.799	0.136	−1.525	−1.672	0.568	0.309	−1.134	−3.018	0.686	0.242	−1.244	−1.589	Dose.FC.LYZ.NS (ISC-enriched organoids [1]; Dose 0.08 uM): 0.095 log 2 fold change; Z.LYZ.NS (ISC-enriched organoids [1]; Dose 0.08 uM): 0.823; Dose.FC.LYZ.NS (ISC-enriched organoids [1]; Dose 0.40 uM): 0.051 log 2 fold change; Z.LYZ.NS (ISC-enriched organoids [1]; Dose 0.40 uM): 0.446; Dose.FC.LYZ.NS (ISC-enriched organoids [1]; Dose 2.00 uM): −0.217 log 2 fold change; Z.LYZ.NS (ISC-enriched organoids [1]; Dose 2.00 uM): −1.885; Dose.FC.LYZ.NS (ISC-enriched organoids [1]; Dose 10.00 uM): −0.273 log 2 fold change; Z.LYZ.NS (ISC-enriched organoids [1]; Dose 10.00 uM): −2.375; Dose.FC.LYZ.S (ISC-enriched organoids [2]; Dose 0.08 uM): 0.162 log 2 fold change; Dose.FC.LYZ.S (ISC-enriched organoids [2]; Dose 0.40 uM): 0.026 log 2 fold change; Dose.FC.LYZ.S (ISC-enriched organoids [2]; Dose 2.00 uM): −0.292 log 2 fold change; Dose.FC.LYZ.S (ISC-enriched organoids [2]; Dose 10.00 uM): −0.399 log 2 fold change; Dose.FC.CTG (ISC-enriched organoids [3]; Dose 0.08 uM): 0.238 log 2 fold change; Dose.FC.CTG (ISC-enriched organoids [3]; Dose 0.40 uM): 0.129 log 2 fold change; Dose.FC.CTG (ISC-enriched organoids [3]; Dose 2.00 uM): −0.475 log 2 fold change; Dose.FC.CTG (ISC-enriched organoids [3]; Dose 10.00 uM): −1.263 log 2 fold change
